{"source": "patent US20260041620A1", "about": "“NOVEL AMINO ACID BASED SALTS, COMPOSITIONS AND METHODS FOR TREATING SKIN AND IMPROVING SKIN REJUVENATION AND LONGEVITY” (Sytheon Ltd, priority 2023, published 2026)", "key": {"HDAC 11": {"target": "T1, HDAC 11 (Homo sapiens, UniProt Q96DB2)", "T1 construct": "purchased BPS Biosciences 50687", "T1 sequence (Q96DB2 1-347)": "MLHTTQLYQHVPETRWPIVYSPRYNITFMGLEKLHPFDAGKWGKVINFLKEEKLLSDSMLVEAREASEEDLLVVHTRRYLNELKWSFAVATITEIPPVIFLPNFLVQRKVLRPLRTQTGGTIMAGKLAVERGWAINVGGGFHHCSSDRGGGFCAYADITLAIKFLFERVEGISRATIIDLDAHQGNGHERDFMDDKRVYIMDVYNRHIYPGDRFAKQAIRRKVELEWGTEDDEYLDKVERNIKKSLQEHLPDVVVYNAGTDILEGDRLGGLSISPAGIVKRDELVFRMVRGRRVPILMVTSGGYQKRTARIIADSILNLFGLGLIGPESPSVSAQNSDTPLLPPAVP", "test": "HDAC 11 fluorogenic assay kit", "format": "biochemical", "quoted_text": "(§1) Test materials were stored at room temperature and stock solutions were prepared at 20 mg/ml in DMSO. Further dilutions were made in sterile distilled water immediately before being added to the reaction mixture containing a substrate, and the reaction was triggered by the addition of purified HDAC enzymes, Double distilled water was the negative control and trichostatin (1.5 ug/ml) was used as a positive control for validation of each study. The test procedure was as directed in the assay kits. The products of the reactions were measured by fluorometry at ex/em 350/450 nm using multi-well plate fluorometer Cytofluor 4000 (Applied Biosystem, Foster City, CA) or using SpectraMax i3× Multi-Mode Detection Platform from Molecular Devices (Sunnyvale, CA).\n(§2) Statistical significance was assessed with a two-tail Student test. Deviations of ≤20% as compared to water control with p values below 0.05 were considered statistically significant."}, "FAAH": {"target": "T2, FAAH (Homo sapiens, UniProt O00519)", "T2 sequence (O00519 1-579)": "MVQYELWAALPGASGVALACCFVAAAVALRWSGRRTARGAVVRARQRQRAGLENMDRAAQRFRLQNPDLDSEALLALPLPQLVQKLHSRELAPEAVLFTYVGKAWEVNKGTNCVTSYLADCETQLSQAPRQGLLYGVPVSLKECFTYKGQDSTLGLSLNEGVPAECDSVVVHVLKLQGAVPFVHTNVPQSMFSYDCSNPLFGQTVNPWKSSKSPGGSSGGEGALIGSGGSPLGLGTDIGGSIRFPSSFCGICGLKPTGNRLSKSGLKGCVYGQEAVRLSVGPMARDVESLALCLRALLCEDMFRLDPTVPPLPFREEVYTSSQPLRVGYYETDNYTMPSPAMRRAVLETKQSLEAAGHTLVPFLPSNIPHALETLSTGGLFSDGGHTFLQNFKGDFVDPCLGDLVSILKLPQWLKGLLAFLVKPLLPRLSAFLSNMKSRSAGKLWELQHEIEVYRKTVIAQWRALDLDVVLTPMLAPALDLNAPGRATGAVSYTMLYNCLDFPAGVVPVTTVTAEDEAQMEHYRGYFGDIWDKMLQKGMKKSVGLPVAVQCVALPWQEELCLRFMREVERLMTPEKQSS", "test": "FAAH fluorescence-based inhibitory assay", "format": "biochemical"}, "MAGL": {"target": "T3, MAGL (Homo sapiens, UniProt Q99685)", "T3 construct": "purchased Cayman 10007812", "T3 sequence (Q99685 1-303)": "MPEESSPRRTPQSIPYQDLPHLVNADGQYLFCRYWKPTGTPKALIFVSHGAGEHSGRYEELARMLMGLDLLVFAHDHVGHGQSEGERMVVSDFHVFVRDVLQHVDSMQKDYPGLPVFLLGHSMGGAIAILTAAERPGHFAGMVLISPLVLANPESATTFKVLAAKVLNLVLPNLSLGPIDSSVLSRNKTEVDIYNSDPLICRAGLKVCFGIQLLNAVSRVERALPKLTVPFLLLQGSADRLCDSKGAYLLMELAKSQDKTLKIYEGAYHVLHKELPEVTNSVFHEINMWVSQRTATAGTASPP", "test": "MAGL inhibitory assay", "format": "biochemical", "description": "Each study was performed in duplicate and the results averaged.\nThe final concentration in each well was 10 μl of sample, 5.6 μM MAGL (Cayman Catalog #10007812) and 23.6 μM 2-Arachidonoyl Glycerol (Cayman catalog #62160)."}, "HDAC2": {"target": "HDAC2 (Homo sapiens, UniProt Q92769)", "sequence (Q92769 whole entry)": "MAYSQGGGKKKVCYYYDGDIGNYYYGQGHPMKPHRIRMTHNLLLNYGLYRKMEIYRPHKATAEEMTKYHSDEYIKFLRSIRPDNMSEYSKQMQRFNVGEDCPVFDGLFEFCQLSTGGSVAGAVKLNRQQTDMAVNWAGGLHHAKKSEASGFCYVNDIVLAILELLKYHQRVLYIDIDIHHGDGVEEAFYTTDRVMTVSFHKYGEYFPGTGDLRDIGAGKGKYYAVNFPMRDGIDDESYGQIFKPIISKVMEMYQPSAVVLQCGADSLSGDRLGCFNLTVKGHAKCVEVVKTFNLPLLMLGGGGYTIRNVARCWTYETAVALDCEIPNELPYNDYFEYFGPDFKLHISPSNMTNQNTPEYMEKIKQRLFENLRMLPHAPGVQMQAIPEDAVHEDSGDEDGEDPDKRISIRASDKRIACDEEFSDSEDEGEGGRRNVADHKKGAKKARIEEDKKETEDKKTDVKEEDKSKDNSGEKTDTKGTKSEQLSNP", "quoted_text": "as §1, §2"}, "HDAC 5": {"target": "HDAC 5 (Homo sapiens, UniProt Q9UQL6)", "sequence (Q9UQL6 whole entry)": "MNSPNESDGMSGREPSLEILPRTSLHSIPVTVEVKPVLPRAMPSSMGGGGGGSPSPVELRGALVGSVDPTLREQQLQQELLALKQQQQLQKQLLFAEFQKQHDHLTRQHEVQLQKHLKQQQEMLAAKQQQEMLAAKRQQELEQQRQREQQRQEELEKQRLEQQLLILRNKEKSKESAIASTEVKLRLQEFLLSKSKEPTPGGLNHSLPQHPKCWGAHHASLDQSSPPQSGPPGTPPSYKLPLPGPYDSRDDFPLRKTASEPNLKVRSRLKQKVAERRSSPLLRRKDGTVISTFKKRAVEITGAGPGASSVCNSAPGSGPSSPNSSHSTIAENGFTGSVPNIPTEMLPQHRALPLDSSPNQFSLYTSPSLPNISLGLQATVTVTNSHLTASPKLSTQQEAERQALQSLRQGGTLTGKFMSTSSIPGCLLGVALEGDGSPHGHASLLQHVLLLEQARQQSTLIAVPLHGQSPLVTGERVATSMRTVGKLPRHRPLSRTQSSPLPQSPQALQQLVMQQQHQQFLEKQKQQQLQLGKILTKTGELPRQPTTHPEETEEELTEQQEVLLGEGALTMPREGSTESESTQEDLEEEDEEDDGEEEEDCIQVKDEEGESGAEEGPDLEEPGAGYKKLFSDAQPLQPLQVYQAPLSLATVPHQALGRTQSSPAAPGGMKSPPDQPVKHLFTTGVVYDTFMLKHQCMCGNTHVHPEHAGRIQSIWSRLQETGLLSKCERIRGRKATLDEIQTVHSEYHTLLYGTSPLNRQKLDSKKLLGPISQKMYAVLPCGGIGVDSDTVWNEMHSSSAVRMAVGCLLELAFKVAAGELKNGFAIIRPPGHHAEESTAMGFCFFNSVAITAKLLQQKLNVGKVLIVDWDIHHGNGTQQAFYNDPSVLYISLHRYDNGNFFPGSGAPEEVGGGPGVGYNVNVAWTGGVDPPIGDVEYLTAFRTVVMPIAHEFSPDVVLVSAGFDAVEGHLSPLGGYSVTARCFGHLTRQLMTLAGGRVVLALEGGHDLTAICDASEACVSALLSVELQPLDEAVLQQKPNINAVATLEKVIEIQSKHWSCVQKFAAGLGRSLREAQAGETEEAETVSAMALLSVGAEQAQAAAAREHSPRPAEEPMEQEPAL", "quoted_text": "as §1, §2"}, "HDAC 8": {"target": "T4, HDAC 8 (Homo sapiens, UniProt Q9BY41)", "T4 sequence (Q9BY41 1-377)": "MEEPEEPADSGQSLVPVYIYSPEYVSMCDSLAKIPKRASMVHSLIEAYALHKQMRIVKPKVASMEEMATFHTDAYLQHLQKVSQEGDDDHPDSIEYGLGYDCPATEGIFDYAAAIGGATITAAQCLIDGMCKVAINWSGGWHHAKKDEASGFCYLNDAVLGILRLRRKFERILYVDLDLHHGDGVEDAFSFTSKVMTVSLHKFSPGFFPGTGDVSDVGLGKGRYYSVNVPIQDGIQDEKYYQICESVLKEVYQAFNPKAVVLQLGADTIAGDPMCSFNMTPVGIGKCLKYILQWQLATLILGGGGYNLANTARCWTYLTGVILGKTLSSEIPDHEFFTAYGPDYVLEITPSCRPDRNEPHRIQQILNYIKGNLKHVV", "quoted_text": "as §1, §2"}, "HDAC 9": {"target": "HDAC 9 (Homo sapiens, UniProt Q9UKV0)", "sequence (Q9UKV0 whole entry)": "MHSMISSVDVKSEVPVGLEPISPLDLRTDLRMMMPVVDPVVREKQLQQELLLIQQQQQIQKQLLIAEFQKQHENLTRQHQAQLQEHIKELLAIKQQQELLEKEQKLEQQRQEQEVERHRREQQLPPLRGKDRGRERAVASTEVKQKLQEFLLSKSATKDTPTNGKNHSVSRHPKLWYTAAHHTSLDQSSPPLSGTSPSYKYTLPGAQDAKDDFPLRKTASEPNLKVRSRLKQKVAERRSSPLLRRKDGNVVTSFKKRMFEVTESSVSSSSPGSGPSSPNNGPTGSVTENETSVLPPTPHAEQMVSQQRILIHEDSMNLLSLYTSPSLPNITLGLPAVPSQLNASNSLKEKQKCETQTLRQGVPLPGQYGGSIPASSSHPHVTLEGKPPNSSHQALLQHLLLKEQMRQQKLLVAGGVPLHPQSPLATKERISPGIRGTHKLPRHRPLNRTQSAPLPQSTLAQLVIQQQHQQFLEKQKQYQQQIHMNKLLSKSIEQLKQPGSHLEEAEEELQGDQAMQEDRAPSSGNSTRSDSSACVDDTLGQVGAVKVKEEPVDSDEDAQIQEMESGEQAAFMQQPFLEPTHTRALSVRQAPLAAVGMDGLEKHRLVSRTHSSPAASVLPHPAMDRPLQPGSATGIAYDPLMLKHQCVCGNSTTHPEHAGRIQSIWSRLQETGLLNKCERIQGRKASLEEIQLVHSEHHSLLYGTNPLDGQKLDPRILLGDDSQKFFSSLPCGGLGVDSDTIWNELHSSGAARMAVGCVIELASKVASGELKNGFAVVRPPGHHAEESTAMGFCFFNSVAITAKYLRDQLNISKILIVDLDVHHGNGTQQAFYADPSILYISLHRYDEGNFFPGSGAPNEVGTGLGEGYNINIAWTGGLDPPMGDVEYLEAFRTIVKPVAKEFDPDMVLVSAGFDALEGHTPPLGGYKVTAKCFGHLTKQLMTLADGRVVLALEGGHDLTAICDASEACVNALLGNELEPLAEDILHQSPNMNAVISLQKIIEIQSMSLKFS", "quoted_text": "as §1, §2"}, "HDAC1": {"target": "HDAC1 (Homo sapiens, UniProt Q13547)", "sequence (Q13547 whole entry)": "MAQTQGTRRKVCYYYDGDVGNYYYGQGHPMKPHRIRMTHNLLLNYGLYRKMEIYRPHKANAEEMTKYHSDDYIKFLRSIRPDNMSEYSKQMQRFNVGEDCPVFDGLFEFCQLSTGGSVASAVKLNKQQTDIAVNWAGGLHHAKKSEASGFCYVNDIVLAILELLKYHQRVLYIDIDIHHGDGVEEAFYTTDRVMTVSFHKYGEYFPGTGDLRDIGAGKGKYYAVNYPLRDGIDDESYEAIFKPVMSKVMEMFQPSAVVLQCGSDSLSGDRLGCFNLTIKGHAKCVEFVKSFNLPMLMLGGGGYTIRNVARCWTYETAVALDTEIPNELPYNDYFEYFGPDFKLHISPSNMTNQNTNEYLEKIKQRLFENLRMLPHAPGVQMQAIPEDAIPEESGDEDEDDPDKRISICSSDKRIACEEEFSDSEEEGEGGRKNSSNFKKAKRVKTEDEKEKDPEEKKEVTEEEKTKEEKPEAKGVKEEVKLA", "test": "HDAC 1 fluorogenic assay kit", "quoted_text": "as §1, §2"}, "HDAC 4": {"target": "HDAC 4 (Homo sapiens, UniProt P56524)", "sequence (P56524 whole entry)": "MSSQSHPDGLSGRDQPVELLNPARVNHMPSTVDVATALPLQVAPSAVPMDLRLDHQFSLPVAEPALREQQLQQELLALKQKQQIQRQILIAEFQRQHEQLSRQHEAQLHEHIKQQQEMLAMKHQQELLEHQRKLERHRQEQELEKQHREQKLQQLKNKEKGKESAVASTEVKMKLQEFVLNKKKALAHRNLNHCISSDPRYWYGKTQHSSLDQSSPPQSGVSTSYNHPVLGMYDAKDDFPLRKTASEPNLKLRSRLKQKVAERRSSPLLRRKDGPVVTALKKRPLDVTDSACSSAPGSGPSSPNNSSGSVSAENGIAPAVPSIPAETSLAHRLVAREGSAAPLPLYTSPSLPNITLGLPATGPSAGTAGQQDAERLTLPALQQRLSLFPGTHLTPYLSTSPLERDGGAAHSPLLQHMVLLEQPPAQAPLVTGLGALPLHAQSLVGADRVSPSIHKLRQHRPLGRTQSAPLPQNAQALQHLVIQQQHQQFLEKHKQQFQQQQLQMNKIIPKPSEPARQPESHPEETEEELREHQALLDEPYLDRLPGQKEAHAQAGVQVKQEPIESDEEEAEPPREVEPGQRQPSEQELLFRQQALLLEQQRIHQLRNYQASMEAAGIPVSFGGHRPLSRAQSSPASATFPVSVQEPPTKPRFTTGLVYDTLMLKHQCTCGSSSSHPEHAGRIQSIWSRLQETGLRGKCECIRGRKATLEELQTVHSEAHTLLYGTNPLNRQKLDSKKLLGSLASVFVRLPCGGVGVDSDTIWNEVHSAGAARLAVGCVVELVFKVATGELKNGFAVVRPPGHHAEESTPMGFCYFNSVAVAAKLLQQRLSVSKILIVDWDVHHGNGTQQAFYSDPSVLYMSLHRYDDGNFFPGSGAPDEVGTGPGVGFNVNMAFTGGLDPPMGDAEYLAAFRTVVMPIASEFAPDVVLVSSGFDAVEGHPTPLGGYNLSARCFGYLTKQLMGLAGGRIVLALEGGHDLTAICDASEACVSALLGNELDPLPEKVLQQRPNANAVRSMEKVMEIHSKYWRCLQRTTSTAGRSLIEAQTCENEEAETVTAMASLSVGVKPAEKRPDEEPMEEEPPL", "test": "HDAC 4 fluorogenic assay kit", "quoted_text": "as §1, §2"}, "FABP-5": {"target": "T5, FABP-5 (Homo sapiens, UniProt Q01469)", "T5 construct": "purchased Raybiotech 268-10276-1", "T5 sequence (Q01469 whole entry)": "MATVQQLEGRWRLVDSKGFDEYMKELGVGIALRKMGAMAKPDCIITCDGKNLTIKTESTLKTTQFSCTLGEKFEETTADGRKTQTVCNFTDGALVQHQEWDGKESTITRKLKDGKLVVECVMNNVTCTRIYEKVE", "test": "FABP-5 ELISA inhibitory assay", "format": "biochemical"}}, "note": "pIC50: −log10 of the molar value. Where two headings read alike, the source gives them in different places.", "data": [{"molecule": "CCCC(=O)[O-].[Na+]", "note": "[Sodium butyrate, reference compound]", "values": [{"measurement": "HDAC 11 activity, % of water-treated controls", "setting": "HDAC 11; 50 ug/ml", "value": 89, "unit": "%"}, {"measurement": "HDAC 11 activity, % of water-treated controls", "setting": "HDAC 11; 100 ug/ml", "value": 87, "unit": "%"}, {"measurement": "HDAC 11 activity, % of water-treated controls", "setting": "HDAC 11; 200 ug/ml", "value": 84, "unit": "%"}, {"measurement": "HDAC 11 activity, % of water-treated controls", "setting": "HDAC 11; 400 ug/ml", "value": 91, "unit": "%"}, {"measurement": "pIC50", "setting": "FAAH", "value": 2.14}, {"measurement": "pIC50", "setting": "MAGL", "value": 2.26}, {"measurement": "HDAC 2 activity, % of water-treated controls", "setting": "HDAC2; 50 ug/ml", "value": 89, "unit": "%"}, {"measurement": "HDAC 2 activity, % of water-treated controls", "setting": "HDAC2; 100 ug/ml", "value": 93, "unit": "%"}, {"measurement": "HDAC 2 activity, % of water-treated controls", "setting": "HDAC2; 200 ug/ml", "value": 94, "unit": "%"}, {"measurement": "HDAC 2 activity, % of water-treated controls", "setting": "HDAC2; 400 ug/ml", "value": 95, "unit": "%"}, {"measurement": "HDAC 5 activity, % of water-treated controls", "setting": "HDAC 5; 50 ug/ml", "value": 38, "unit": "%"}, {"measurement": "HDAC 5 activity, % of water-treated controls", "setting": "HDAC 5; 100 ug/ml", "value": 26, "unit": "%"}, {"measurement": "HDAC 5 activity, % of water-treated controls", "setting": "HDAC 5; 200 ug/ml", "value": 15, "unit": "%"}, {"measurement": "HDAC 5 activity, % of water-treated controls", "setting": "HDAC 5; 400 ug/ml", "value": 11, "unit": "%"}, {"measurement": "HDAC 8 activity, % of water-treated controls", "setting": "HDAC 8; 50 ug/ml", "value": 25, "unit": "%"}, {"measurement": "HDAC 8 activity, % of water-treated controls", "setting": "HDAC 8; 100 ug/ml", "value": 20, "unit": "%"}, {"measurement": "HDAC 8 activity, % of water-treated controls", "setting": "HDAC 8; 200 ug/ml", "value": 20, "unit": "%"}, {"measurement": "HDAC 8 activity, % of water-treated controls", "setting": "HDAC 8; 400 ug/ml", "value": 14, "unit": "%"}, {"measurement": "HDAC 9 activity, % of water-treated controls", "setting": "HDAC 9; 50 ug/ml", "value": 55, "unit": "%"}, {"measurement": "HDAC 9 activity, % of water-treated controls", "setting": "HDAC 9; 100 ug/ml", "value": 53, "unit": "%"}, {"measurement": "HDAC 9 activity, % of water-treated controls", "setting": "HDAC 9; 200 ug/ml", "value": 57, "unit": "%"}, {"measurement": "HDAC 9 activity, % of water-treated controls", "setting": "HDAC 9; 400 ug/ml", "value": 58, "unit": "%"}, {"measurement": "HDAC 1 activity, % of water-treated controls", "setting": "HDAC1; 50 ug/ml", "value": 109, "unit": "%"}, {"measurement": "HDAC 1 activity, % of water-treated controls", "setting": "HDAC1; 100 ug/ml", "value": 46, "unit": "%"}, {"measurement": "HDAC 1 activity, % of water-treated controls", "setting": "HDAC1; 200 ug/ml", "value": 39, "unit": "%"}, {"measurement": "HDAC 1 activity, % of water-treated controls", "setting": "HDAC1; 400 ug/ml", "value": 38, "unit": "%"}, {"measurement": "HDAC 4 activity, % of water-treated controls", "setting": "HDAC 4; 25 ug/ml", "value": 93, "unit": "%"}, {"measurement": "HDAC 4 activity, % of water-treated controls", "setting": "HDAC 4; 50 ug/ml", "value": 96, "unit": "%"}, {"measurement": "HDAC 4 activity, % of water-treated controls", "setting": "HDAC 4; 100 ug/ml", "value": 96, "unit": "%"}]}, {"molecule": "CCCC(=O)NCCCCC(NC(=O)CCC)C(=O)[O-].CCCC(=O)NCCCCC(NC(=O)CCC)C(=O)[O-].[Ca+2]", "note": "(stereo not shown) [Ca di-(di-n-butyryl lysinate), calcium di-(di-n-butyryl lysinate)]", "values": [{"measurement": "HDAC 11 activity, % of water-treated controls", "setting": "HDAC 11; 25 ug/ml", "value": 106, "unit": "%"}, {"measurement": "HDAC 11 activity, % of water-treated controls", "setting": "HDAC 11; 50 ug/ml", "value": 100, "unit": "%"}, {"measurement": "HDAC 11 activity, % of water-treated controls", "setting": "HDAC 11; 100 ug/ml", "value": 101, "unit": "%"}, {"measurement": "HDAC 11 activity, % of water-treated controls", "setting": "HDAC 11; 200 ug/ml", "value": 97, "unit": "%"}, {"measurement": "FAAH IC50", "setting": "FAAH", "value": 213.6, "unit": "µg/mL"}, {"measurement": "FABP-5 IC50", "setting": "FABP-5", "value": 786, "unit": "µg/mL"}, {"measurement": "MAGL IC50", "setting": "MAGL", "value": 37.6, "unit": "µg/mL"}, {"measurement": "HDAC 2 activity, % of water-treated controls", "setting": "HDAC2; 25 ug/ml", "value": 96, "unit": "%"}, {"measurement": "HDAC 2 activity, % of water-treated controls", "setting": "HDAC2; 50 ug/ml", "value": 90, "unit": "%"}, {"measurement": "HDAC 2 activity, % of water-treated controls", "setting": "HDAC2; 100 ug/ml", "value": 97, "unit": "%"}, {"measurement": "HDAC 2 activity, % of water-treated controls", "setting": "HDAC2; 200 ug/ml", "value": 94, "unit": "%"}, {"measurement": "HDAC 5 activity, % of water-treated controls", "setting": "HDAC 5; 5 ug/ml", "value": 144, "unit": "%"}, {"measurement": "HDAC 5 activity, % of water-treated controls", "setting": "HDAC 5; 25 ug/ml", "value": 128, "unit": "%"}, {"measurement": "HDAC 5 activity, % of water-treated controls", "setting": "HDAC 5; 50 ug/ml", "value": 123, "unit": "%"}, {"measurement": "HDAC 5 activity, % of water-treated controls", "setting": "HDAC 5; 100 ug/ml", "value": 117, "unit": "%"}, {"measurement": "HDAC 5 activity, % of water-treated controls", "setting": "HDAC 5; 200 ug/ml", "value": 88, "unit": "%"}, {"measurement": "HDAC 8 activity, % of water-treated controls", "setting": "HDAC 8; 5 ug/ml", "value": 91, "unit": "%"}, {"measurement": "HDAC 8 activity, % of water-treated controls", "setting": "HDAC 8; 25 ug/ml", "value": 148, "unit": "%"}, {"measurement": "HDAC 8 activity, % of water-treated controls", "setting": "HDAC 8; 50 ug/ml", "value": 174, "unit": "%"}, {"measurement": "HDAC 8 activity, % of water-treated controls", "setting": "HDAC 8; 100 ug/ml", "value": 155, "unit": "%"}, {"measurement": "HDAC 8 activity, % of water-treated controls", "setting": "HDAC 8; 200 ug/ml", "value": 111, "unit": "%"}, {"measurement": "HDAC 9 activity, % of water-treated controls", "setting": "HDAC 9; 5 ug/ml", "value": 212, "unit": "%"}, {"measurement": "HDAC 9 activity, % of water-treated controls", "setting": "HDAC 9; 25 ug/ml", "value": 178, "unit": "%"}, {"measurement": "HDAC 9 activity, % of water-treated controls", "setting": "HDAC 9; 50 ug/ml", "value": 242, "unit": "%"}, {"measurement": "HDAC 9 activity, % of water-treated controls", "setting": "HDAC 9; 100 ug/ml", "value": 289, "unit": "%"}, {"measurement": "HDAC 9 activity, % of water-treated controls", "setting": "HDAC 9; 200 ug/ml", "value": 258, "unit": "%"}, {"measurement": "HDAC 1 activity, % of water-treated controls", "setting": "HDAC1; 25 ug/ml", "value": 80, "unit": "%"}, {"measurement": "HDAC 1 activity, % of water-treated controls", "setting": "HDAC1; 50 ug/ml", "value": 89, "unit": "%"}, {"measurement": "HDAC 1 activity, % of water-treated controls", "setting": "HDAC1; 100 ug/ml", "value": 135, "unit": "%"}]}]}
